From patent US9133194B2, “Cyclic tripeptide mimetics as plasmin inhibitors” (priority 2011, dated 2015)
Like-named read-outs stand apart in the source and are kept apart here. Each block holds one compound with its values, some of them ahead of it.

What was measured:
Thrombin (bovine) = Thrombin (bovine) (Bos taurus, UniProt P00735); test: Enzyme-kinetic determination of inhibition constants, thrombin (Pefachrome tPA); type: biochemical; conditions: Tris-HCl buffer pH 8.0, Dixon, mean of at least two determinations
Text: (§1) The Ki values are the mean value of at least two determinations.

plasmin = plasmin (Homo sapiens, UniProt P00747); test: Enzyme-kinetic determination of inhibition constants, plasmin (Chromozym PL); type: biochemical
Text: as §1

plasma kallikrein = plasma kallikrein (Homo sapiens, UniProt P03952); test: Enzyme-kinetic determination of inhibition constants, plasma kallikrein (Haemochrom PK); type: biochemical; conditions: Tris-HCl buffer pH 8.0, Dixon, mean of at least two determinations
Text: as §1

Factor Xa (human) = Factor Xa (human) (Homo sapiens, UniProt P00742); test: Enzyme-kinetic determination of inhibition constants, factor Xa (Pefachrome FXa); type: biochemical; conditions: Tris-HCl buffer pH 8.0, Dixon, mean of at least two determinations
Text: as §1

trypsin = conditions: background, aprotinin; read-out: K for trypsin; cited from earlier work
[1] = cited from earlier work
[2] = Tris-HCl buffer pH 8.0, Dixon, mean of at least two determinations, read-out: Ki Plasmin

Sequence of Factor Xa (human) (P00742 235-488 limits assumed): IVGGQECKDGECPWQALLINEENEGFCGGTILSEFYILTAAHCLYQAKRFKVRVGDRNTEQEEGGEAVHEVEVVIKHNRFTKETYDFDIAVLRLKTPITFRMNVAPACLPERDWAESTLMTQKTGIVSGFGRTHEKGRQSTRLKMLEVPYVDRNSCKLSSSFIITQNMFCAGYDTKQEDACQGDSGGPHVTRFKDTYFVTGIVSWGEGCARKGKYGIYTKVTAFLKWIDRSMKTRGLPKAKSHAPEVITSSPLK
Sequence of Factor Xa (human) (P00742 41-179 partner limits assumed): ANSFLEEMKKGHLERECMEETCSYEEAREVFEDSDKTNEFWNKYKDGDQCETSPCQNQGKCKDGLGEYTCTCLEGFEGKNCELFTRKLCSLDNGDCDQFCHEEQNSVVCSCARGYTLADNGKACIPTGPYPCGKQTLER
Sequence of plasmin (P00747 581-810 limits assumed): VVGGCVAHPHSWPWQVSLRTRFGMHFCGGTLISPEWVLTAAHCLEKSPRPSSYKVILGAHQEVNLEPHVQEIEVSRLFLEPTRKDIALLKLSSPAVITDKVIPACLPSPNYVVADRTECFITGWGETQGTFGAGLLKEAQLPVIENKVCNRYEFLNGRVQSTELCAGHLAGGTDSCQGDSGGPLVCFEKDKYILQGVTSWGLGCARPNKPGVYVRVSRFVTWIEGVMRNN
Sequence of plasmin (P00747 97-580 partner limits assumed): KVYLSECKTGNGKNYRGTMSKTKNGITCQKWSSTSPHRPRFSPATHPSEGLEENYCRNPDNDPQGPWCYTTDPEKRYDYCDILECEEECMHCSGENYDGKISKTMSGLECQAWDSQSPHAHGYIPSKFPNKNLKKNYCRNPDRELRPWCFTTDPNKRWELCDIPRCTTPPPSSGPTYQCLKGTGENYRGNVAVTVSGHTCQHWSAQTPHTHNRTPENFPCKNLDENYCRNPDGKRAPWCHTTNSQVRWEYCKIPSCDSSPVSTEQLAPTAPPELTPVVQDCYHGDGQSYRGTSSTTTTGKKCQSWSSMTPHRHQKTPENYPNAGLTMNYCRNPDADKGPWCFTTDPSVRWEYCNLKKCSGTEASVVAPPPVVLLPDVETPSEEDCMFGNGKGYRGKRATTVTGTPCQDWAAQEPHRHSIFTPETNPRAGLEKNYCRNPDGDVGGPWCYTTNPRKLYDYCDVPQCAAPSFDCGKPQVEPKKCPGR
Sequence of plasma kallikrein (P03952 391-638 limits assumed): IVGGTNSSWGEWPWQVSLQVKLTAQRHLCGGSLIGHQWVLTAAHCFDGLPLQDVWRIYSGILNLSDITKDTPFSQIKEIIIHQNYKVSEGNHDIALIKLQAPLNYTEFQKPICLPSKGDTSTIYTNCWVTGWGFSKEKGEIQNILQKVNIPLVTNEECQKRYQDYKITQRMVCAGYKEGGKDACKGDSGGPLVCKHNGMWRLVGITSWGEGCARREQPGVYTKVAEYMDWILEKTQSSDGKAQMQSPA
Sequence of plasma kallikrein (P03952 20-390 partner limits assumed): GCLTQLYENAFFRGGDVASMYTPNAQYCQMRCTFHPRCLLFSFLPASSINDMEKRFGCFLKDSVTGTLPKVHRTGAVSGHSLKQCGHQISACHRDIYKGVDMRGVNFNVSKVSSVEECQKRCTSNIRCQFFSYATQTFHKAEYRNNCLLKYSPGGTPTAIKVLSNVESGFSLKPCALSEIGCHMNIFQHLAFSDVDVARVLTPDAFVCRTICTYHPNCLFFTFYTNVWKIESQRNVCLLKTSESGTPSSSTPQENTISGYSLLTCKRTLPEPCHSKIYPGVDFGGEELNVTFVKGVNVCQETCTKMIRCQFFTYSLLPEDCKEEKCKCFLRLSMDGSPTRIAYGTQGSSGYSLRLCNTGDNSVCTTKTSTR

Compound: N=C(N)c1ccc(CNC(=O)[C@@H]2Cc3ccc(cc3)NC(=O)CN3CCN(CC3)CC(=O)Nc3ccc(cc3)C[C@@H](NC(=O)OCc3ccccc3)C(=O)N2)cc1 [Inhibitor 11]
Ki (Thrombin (bovine)): 46.9 µM
Ki (plasmin; [2]): 5.4 nM
Ki (plasma kallikrein): 4.64 µM
Ki (Factor Xa (human)): 104 µM

Compound: N=C(N)c1ccc(CNC(=O)[C@@H]2Cc3ccc(cc3)NC(=O)CCN3CCN(CCC(=O)Nc4ccc(cc4)C[C@@H](NC(=O)OCc4ccccc4)C(=O)N2)CC3)cc1 [Inhibitor 5]
Ki (Thrombin (bovine)): 44 µM
Ki (plasmin; [2]): 0.77 nM
Ki (plasma kallikrein): 6.95 µM
Ki (Factor Xa (human)): 47.4 µM

Ki (Thrombin (bovine)): 0.62 µM
Ki (plasmin; [2]): 2.2 nM
Ki (plasma kallikrein): 0.077 µM
Ki (Factor Xa (human)): 1.45 µM
Compound: CC1(C)C(=O)Nc2ccc(cc2)C[C@@H](C(=O)NCc2ccc(C(=N)N)cc2)NC(=O)[C@H](NS(=O)(=O)Cc2ccccc2)Cc2ccc(cc2)NC(=O)C(C)(C)N2CCN1CC2 [Inhibitor 7]

Compound: N=C(N)c1ccc(CNC(=O)[C@@H]2Cc3ccc(cc3)NC(=O)CCN3CCN(CCC(=O)Nc4ccc(cc4)C[C@@H](NS(=O)(=O)NC4CCCCC4)C(=O)N2)CC3)cc1 [Inhibitor 1]
Ki (Thrombin (bovine)): 17 µM
Ki (plasmin): 0.052 nM
Ki (plasma kallikrein): 0.6 µM
Ki (Factor Xa (human)): 7.4 µM

Compound: N=C(N)c1ccc(CNC(=O)[C@@H]2Cc3ccc(cc3)NC(=O)CCN3CCN(CCC(=O)Nc4ccc(cc4)C[C@@H](NC(=O)Cc4ccccc4)C(=O)N2)CC3)cc1 [Inhibitor 4]
Ki (Thrombin (bovine)): 41.8 µM
Ki (plasmin; [2]): 8 nM
Ki (plasma kallikrein): 7.92 µM
Ki (Factor Xa (human)): 188 µM

Compound: aprotinin
Ki (trypsin): 0.0001 µM
risk of an anaphylactic shock ([1]; aprotinin applied for the first time): < 0.1%
risk of myocardial infarction and apoplectic stroke ([1]; compared to the control groups): increased
number of cases of kidney damage requiring subsequent dialysis ([1]; comparison with ε-aminocaproic acid or tranexamic acid (Mangano et al.)): doubling
risk of an anaphylactic shock ([1]; repeated administration within 200 days): 4-5%

Compound: N=C(N)NCCCCNC(=O)[C@@H]1Cc2ccc(cc2)NC(=O)CCN2CCN(CCC(=O)Nc3ccc(cc3)C[C@@H](NS(=O)(=O)NC3CCCCC3)C(=O)N1)CC2 [Inhibitor 13]
Ki (plasmin; [2]): 3.5 nM

Compound: N=C(N)c1ccc(CNC(=O)[C@@H]2Cc3ccc(cc3)NC(=O)CCN3CCN(CCC(=O)Nc4ccc(cc4)C[C@@H](N)C(=O)N2)CC3)cc1 [Inhibitor 6]
Ki (Thrombin (bovine)): 60.8 µM
Ki (plasmin): 12.8 nM
Ki (plasma kallikrein): 24.5 µM
Ki (Factor Xa (human)): 405 µM

Compound: NCc1ccc(CNC(=O)[C@@H]2Cc3ccc(cc3)NC(=O)CCN3CCN(CCC(=O)Nc4ccc(cc4)C[C@@H](NS(=O)(=O)Cc4ccccc4)C(=O)N2)CC3)cc1 [Inhibitor 3]
Ki (Thrombin (bovine)): 141 µM
Ki (plasmin): 1.24 nM
Ki (plasma kallikrein): 6.38 µM
Ki (Factor Xa (human)): 78 µM

Compound: CN(C)S(=O)(=O)N[C@@H]1Cc2ccc(cc2)NC(=O)CN2CCN(CC2)CC(=O)Nc2ccc(cc2)C[C@@H](C(=O)NCc2ccc(C(=N)N)cc2)NC1=O [Inhibitor 14]
Ki (Thrombin (bovine)): 4.96 µM
Ki (plasmin): 5.9 nM
Ki (plasma kallikrein): 12 µM
Ki (Factor Xa (human)): 134 µM

Compound: N=C(N)c1ccc(CNC(=O)[C@@H]2Cc3ccc(cc3)NC(=O)CN3CCN(CC3)CC(=O)Nc3ccc(cc3)C[C@@H](NS(=O)(=O)NC3CCCCC3)C(=O)N2)cc1 [Inhibitor 2]
Ki (Thrombin (bovine)): 16 µM
Ki (plasmin): 0.32 nM
Ki (plasma kallikrein): 0.319 µM
Ki (Factor Xa (human)): 7.9 µM
